For data set [1], the system named is zebrafish embryos. The experiment in a line: 96-well plate embryo survival assay. The data set is classed as in vivo. The following applies: 1% DMSO in egg water, 5- to 8-day old embryos. The method, then:
Next it was determined if 5- to 8-day old zebrafish embryos are able to survive in 96 well plates, and what […] of water was necessary to attain high levels of survival. Six-day old zebrafish embryos were allocated to wells in a 96 well plate. Three to four embryos were grown in 250, 150, and 100 μl of egg water with and without 1% DMSO and analyzed daily for mortality.

In data set [2] the test system is MYC-ER. To be noted: in the presence of tamoxifen; by 300 days of development; CD2-MYC-ER mouse models; cited from earlier work.

The values that follow come from patent US7525011B2, “Transgenic cancer models in fish” (Dana-Farber Cancer Institute, priority 2002, dated 2009).

Molecules are shown by their SMILES.

`C[S+](C)[O-]` [DMSO]: the “effect on embryo survival” value in data set [1] was “no significant effect”.
In the case of `CC/C(=C(\c1ccccc1)c1ccc(OCCN(C)C)cc1)c1ccccc1` [tamoxifen], in data set [2], the offspring developing tumors is 62%.
